# Reference: the supplement of paper PMC10307832
# How the values were obtained:
# Experiment in all cases: relative viability (nuclei count vs DMSO), 5 days (fraction); higher = more cells survive
# [1] = compound: CN1C=C(C2=CC=CC=C21)/C=C\3/C4=C(C=CC=N4)NC3=O + N=C(N)NC(=N)NCCc1ccccc1 [Phenformin] (partner 250 µM)
# Procedure, shortened: (§1)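 Values are medians from duplicate plates. Each reflects relative viability, defined as the nuclei count of treated wells over that of vehicle wells. Lung cancer cell lines in 1536-well plates were pin-tool dosed one day after seeding with one drug alone or with a fixed anchor-drug dose plus five library-drug doses (not always all listed) in √10 steps, then fixed, stained and imaged at 4× after 5 days.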
# [2] = compound: CC(=O)Nc1cccc(-n2c(=O)n(C3CC3)c(=O)c3c(Nc4ccc(I)cc4F)n(C)c(=O)c(C)c32)c1 [Trametinib] + Nc1nc2[nH]cc(CCc3ccc(C(=O)N[C@@H](CCC(=O)O)C(=O)O)cc3)c2c(=O)[nH]1 [Pemetrexed] (partner 0.2 µM)
# Procedure, shortened: as §1
# [3] = compound: CC(=O)Nc1cccc(-n2c(=O)n(C3CC3)c(=O)c3c(Nc4ccc(I)cc4F)n(C)c(=O)c(C)c32)c1 [Trametinib] + COc1cc2c(Oc3ccc(NC(=O)C4(C(=O)Nc5ccc(F)cc5)CC4)cc3F)ccnc2cc1OCCCN1CCOCC1 [Foretinib] (partner 0.25 µM)
# Procedure, shortened: as §1
# [4] = compound: CN1C=C(C2=CC=CC=C21)/C=C\3/C4=C(C=CC=N4)NC3=O + COc1cccc2cc(-c3nc([C@H]4CC[C@H](C(=O)O)CC4)n4ncnc(N)c34)[nH]c12 [OSI-027] (partner 0.5 µM)
# Procedure, shortened: as §1
Cell Line,relative viability ([1]; first compound 0.02 µM),relative viability ([1]; first compound 0.06325 µM),relative viability ([1]; first compound 0.2 µM),relative viability ([1]; first compound 0.6325 µM),relative viability ([1]; first compound 2 µM),relative viability ([2]; first compound 0.0025 µM),relative viability ([2]; first compound 0.007906 µM),relative viability ([2]; first compound 0.025 µM),relative viability ([2]; first compound 0.07906 µM),relative viability ([2]; first compound 0.25 µM),relative viability ([3]; first compound 0.0025 µM),relative viability ([3]; first compound 0.007906 µM),relative viability ([3]; first compound 0.025 µM),relative viability ([3]; first compound 0.07906 µM),relative viability ([3]; first compound 0.25 µM),relative viability ([4]; first compound 0.02 µM),relative viability ([4]; first compound 0.06325 µM),relative viability ([4]; first compound 0.2 µM),relative viability ([4]; first compound 0.6325 µM),relative viability ([4]; first compound 2 µM)
NCI-H358,0.301,0.316,0.311,0.4,0.4,0.156,0.143,0.164,0.16,0.152,0.49,0.302,0.264,0.18,0.166,0.756,0.67,0.768,0.851,0.689
NCI-H441,0.795,0.754,0.804,0.88,0.772,0.3,0.306,0.247,0.261,0.285,1.03,1.01,0.699,0.742,0.703,0.557,0.646,0.739,0.607,0.459
NCI-H460,0.553,0.526,0.52,0.56,0.571,0.0594,0.0614,0.0626,0.0649,0.0564,0.942,0.816,0.549,0.21,0.11,0.81,0.726,0.649,0.63,0.676
NCI-H520,0.453,0.503,0.54,0.669,0.533,0.645,0.69,0.667,0.648,0.533,0.874,0.785,0.866,0.739,0.585,0.199,0.223,0.289,0.275,0.266
NCI-H596,0.858,0.67,0.619,0.698,0.709,0.475,0.445,0.477,0.546,0.426,0.793,0.596,0.709,0.69,0.396,0.656,0.764,0.566,0.692,0.633
NCI-H647,0.387,0.387,0.343,0.479,0.528,0.188,0.183,0.152,0.155,0.141,1.35,1.08,0.963,0.911,0.4,0.719,0.616,0.478,0.655,0.557
NCI-H650,0.474,0.481,–,0.421,0.404,1.12,1.31,1.01,1.06,0.884,1.1,1.17,1.1,1.17,0.839,0.628,0.515,–,0.529,0.506
NCI-H661,0.261,0.277,0.266,0.276,0.264,0.882,0.889,0.821,0.753,0.753,0.941,1,0.794,0.751,0.62,0.751,0.689,0.722,0.676,0.76
NCI-H838,0.5,0.533,0.519,0.569,0.535,0.245,0.212,0.229,0.217,0.213,0.921,0.889,0.795,0.797,0.638,0.335,0.326,0.354,0.366,0.319
NCI-H1355,0.439,0.388,0.398,0.358,0.434,1.03,0.946,0.516,0.717,0.615,0.993,0.725,0.519,0.606,0.488,0.371,0.348,0.3,0.345,0.362
NCI-H1395,0.436,0.429,0.365,0.446,0.414,0.952,0.837,0.708,0.609,0.466,0.993,0.914,0.852,0.919,0.708,0.604,0.613,0.445,0.669,0.601
NCI-H1437,0.307,0.325,0.231,0.28,0.267,0.271,0.23,0.265,0.203,0.192,1.24,1.06,0.754,0.664,0.588,0.862,0.897,0.793,0.927,1.01
NCI-H1563,0.627,0.64,0.635,0.672,0.684,0.787,0.755,0.574,0.669,0.657,0.953,0.815,0.807,0.804,0.694,0.741,0.75,0.743,0.778,0.75
NCI-H1650,0.401,0.451,0.362,0.345,0.397,0.388,0.324,0.314,0.329,0.216,1.18,0.857,0.894,0.838,0.506,0.55,0.541,0.437,0.458,0.539
NCI-H1651,0.377,0.344,0.305,0.327,0.397,0.554,0.618,0.426,0.47,0.278,0.773,0.687,0.702,0.652,0.671,0.615,0.724,0.65,0.66,0.733
NCI-H1666,0.57,0.527,0.481,0.577,0.494,0.881,0.742,0.753,0.695,0.693,0.892,0.758,0.709,0.685,0.59,0.853,0.914,0.842,0.729,0.818

Cell Line,relative viability ([1]; first compound 0.02 µM),relative viability ([1]; first compound 0.06325 µM),relative viability ([1]; first compound 0.2 µM),relative viability ([1]; first compound 0.6325 µM),relative viability ([1]; first compound 2 µM),relative viability ([2]; first compound 0.0025 µM),relative viability ([2]; first compound 0.007906 µM),relative viability ([2]; first compound 0.025 µM),relative viability ([2]; first compound 0.07906 µM),relative viability ([2]; first compound 0.25 µM),relative viability ([3]; first compound 0.0025 µM),relative viability ([3]; first compound 0.007906 µM),relative viability ([3]; first compound 0.025 µM),relative viability ([3]; first compound 0.07906 µM),relative viability ([3]; first compound 0.25 µM),relative viability ([4]; first compound 0.02 µM),relative viability ([4]; first compound 0.06325 µM),relative viability ([4]; first compound 0.2 µM),relative viability ([4]; first compound 0.6325 µM),relative viability ([4]; first compound 2 µM)
NCI-H1734,0.412,0.354,–,0.376,0.373,0.418,0.383,–,0.387,0.355,0.968,0.781,0.582,0.607,0.446,0.581,0.631,–,0.68,0.565
NCI-H1755,0.532,0.537,0.523,0.263,0.571,0.378,0.452,0.411,0.47,0.397,0.856,0.863,0.82,0.809,0.787,0.619,0.654,0.655,0.683,0.644
NCI-H1793,0.393,0.41,0.314,0.403,0.368,0.617,0.481,0.315,0.365,0.338,0.661,0.349,0.393,0.256,0.237,0.283,0.252,0.248,0.244,0.197
NCI-H1915,0.331,0.361,0.365,0.347,0.36,0.492,0.521,0.313,0.262,0.216,1.11,0.781,0.538,0.596,0.298,0.621,0.635,0.665,0.673,0.761
NCI-H1944,0.21,0.181,–,0.181,0.167,0.514,0.429,0.39,0.318,0.29,0.811,0.634,0.572,0.461,0.341,0.433,0.368,–,0.423,0.351
NCI-H1975,0.392,0.378,0.318,0.389,0.402,0.326,0.284,0.246,0.249,0.226,0.973,0.87,0.839,0.334,0.385,0.698,0.739,0.828,0.646,0.449
NCI-H1993,0.544,0.432,0.431,0.55,0.509,0.511,0.566,0.543,0.543,0.453,0.657,0.616,0.678,0.663,0.661,0.454,0.515,0.587,0.571,0.577
NCI-H2009,0.486,0.518,0.509,0.502,0.513,1.06,0.794,0.499,0.368,0.37,1.05,0.708,0.351,0.279,0.302,0.684,0.616,0.668,0.688,0.642
NCI-H2023,0.395,0.376,0.361,0.409,0.418,0.205,0.187,0.184,0.189,0.14,0.795,0.472,0.497,0.35,0.302,0.395,0.351,0.231,0.337,0.316
NCI-H2085,0.74,0.656,0.647,0.778,0.72,0.752,0.676,0.545,0.528,0.516,0.695,0.732,0.625,0.587,0.626,0.897,0.717,0.597,0.716,0.67
NCI-H2087,0.488,0.431,0.387,0.453,0.369,0.554,0.642,0.468,0.179,0.281,0.803,0.488,0.343,0.211,0.205,0.75,0.403,0.47,0.642,0.587
NCI-H2126,0.506,0.508,0.507,0.519,0.505,0.647,0.553,0.464,0.538,0.428,1.01,1.05,0.994,1,0.816,0.605,0.657,0.6,0.697,0.612
NCI-H2170,0.354,0.366,0.327,0.405,0.4,0.281,0.267,–,0.271,0.237,0.973,0.539,0.968,0.963,0.87,0.718,0.69,0.55,0.764,0.668
NCI-H2228,0.213,0.273,–,–,0.304,0.369,0.301,0.339,0.295,0.208,0.911,0.761,0.811,0.571,0.4,0.576,0.452,–,–,0.462
NCI-H2342,0.623,0.641,0.486,0.57,0.505,0.688,0.727,0.459,0.689,0.685,1.05,0.911,–,0.908,0.997,0.617,0.616,0.596,0.535,0.65
NCI-H2347,–,0.374,0.297,0.318,0.46,0.425,0.44,0.362,0.302,0.337,1.08,0.43,0.31,0.46,0.387,–,0.347,0.483,0.552,0.378
